Assay results reported in ChEMBL document CHEMBL3885861, “Open TG-GATES”.

Species: Rattus norvegicus
Experiment: Open TG-GATES - Regimen: Single
Type: toxicity, organism-based, Sprague-Dawley
Design: regimen Single, gender Male, age 6 weeks
Conditions: in vivo, po, 1000 mg/kg, route gavage, dose level Middle; for APTT / Bas / Eos / Fbg / Hb / Ht / Lym / MCH / MCHC / MCV / Mono / Neu / PT / Plat / RBC / Ret / WBC: tissue Blood; for KIDNEY_L / KIDNEY_R / KIDNEY_TOTAL: tissue Kidney; for LIVER: tissue Liver; for A/G / ALP / ALT / AST / BUN / CRE / Ca / Cl / DBIL / GLC / IP / K / LDH / Na / PL / RALB / TBIL / TC / TG / TP / gamma-GTP: tissue Plasma

CC(=O)[C@@]1(O)CC[C@H]2[C@@H]3C=C(Cl)C4=CC(=O)CC[C@]4(C)[C@H]3CC[C@@]21C [CHLORMADINONE]
TERMINAL_BW (3 h): 226.2 g
APTT (3 h): 23.3 s
Bas (3 h): 0%
Eos (3 h): 1%
Fbg (3 h): 302 mg/dL
Hb (3 h): 12.9 g/dL
Ht (3 h): 40.2%
Lym (3 h): 75%
MCH (3 h): 21.2 pg
MCHC (3 h): 32.1%
MCV (3 h): 66.1 fL
Mono (3 h): 2.4%
Neu (3 h): 21.2%
PT (3 h): 15.8 s
Plat (3 h): 112.9 x10_4/uL
RBC (3 h): 608.8 x10_4/ul
Ret (3 h): 9.1%
WBC (3 h): 72.4 x10_2/uL
KIDNEY_L (3 h): 1 g
KIDNEY_R (3 h): 1.1 g
KIDNEY_TOTAL (3 h): 2.1 g
LIVER (3 h): 10.9 g
A/G (3 h): 1.3
ALP (3 h): 1451.2 IU/L
ALT (3 h): 38.8 IU/L
AST (3 h): 74 IU/L
BUN (3 h): 13.8 mg/dL
CRE (3 h): 0.1 mg/dL
Ca (3 h): 11.2 mg/dL
Cl (3 h): 104.6 meq/L
DBIL (3 h): 0 mg/dL
GLC (3 h): 176.4 mg/dL
IP (3 h): 8 mg/dL
K (3 h): 4.3 meq/L
LDH (3 h): 166.6 IU/L
Na (3 h): 141.6 meq/L
PL (3 h): 134.4 mg/dL
RALB (3 h): 3.1 g/dL
TBIL (3 h): 0.028 mg/dL
TC (3 h): 74.4 mg/dL
TG (3 h): 50 mg/dL
TP (3 h): 5.5 g/dL
gamma-GTP (3 h): 2 IU/L
TERMINAL_BW (6 h): 221.4 g
APTT (6 h): 23.3 s
Bas (6 h): 0%
Eos (6 h): 0.2%
Fbg (6 h): 300.8 mg/dL
Hb (6 h): 13 g/dL
Ht (6 h): 40.1%
Lym (6 h): 72.2%
MCH (6 h): 19.8 pg
MCHC (6 h): 32.5%
MCV (6 h): 61.1 fL
Mono (6 h): 1.6%
Neu (6 h): 25.2%
PT (6 h): 15.6 s
Plat (6 h): 119.2 x10_4/uL
RBC (6 h): 655.4 x10_4/ul
Ret (6 h): 8.1%
WBC (6 h): 56.2 x10_2/uL
KIDNEY_L (6 h): 1 g
KIDNEY_R (6 h): 1 g
KIDNEY_TOTAL (6 h): 2 g
LIVER (6 h): 10.3 g
A/G (6 h): 1.2
ALP (6 h): 1445.6 IU/L
ALT (6 h): 43 IU/L
AST (6 h): 73 IU/L
BUN (6 h): 13 mg/dL
CRE (6 h): 0.2 mg/dL
Ca (6 h): 10.8 mg/dL
Cl (6 h): 105.2 meq/L
DBIL (6 h): 0.002 mg/dL
GLC (6 h): 181.2 mg/dL
IP (6 h): 10.2 mg/dL
K (6 h): 4.6 meq/L
LDH (6 h): 143.6 IU/L
Na (6 h): 140.4 meq/L
PL (6 h): 138.2 mg/dL
RALB (6 h): 3.1 g/dL
TBIL (6 h): 0.04 mg/dL
TC (6 h): 81.6 mg/dL
TG (6 h): 27.6 mg/dL
TP (6 h): 5.6 g/dL
gamma-GTP (6 h): 1.6 IU/L
TERMINAL_BW (9 h): 211.4 g
APTT (9 h): 23.8 s
Bas (9 h): 0%
Eos (9 h): 0.2%
Fbg (9 h): 336.2 mg/dL
Hb (9 h): 13.3 g/dL
Ht (9 h): 41.7%
Lym (9 h): 72.4%
MCH (9 h): 20 pg
MCHC (9 h): 32%
MCV (9 h): 62.5 fL
Mono (9 h): 1%
Neu (9 h): 25.6%
PT (9 h): 15.4 s
Plat (9 h): 110.4 x10_4/uL
RBC (9 h): 667.4 x10_4/ul
Ret (9 h): 7.4%
WBC (9 h): 39.5 x10_2/uL
KIDNEY_L (9 h): 1 g
KIDNEY_R (9 h): 1 g
KIDNEY_TOTAL (9 h): 1.9 g
LIVER (9 h): 10.5 g
A/G (9 h): 1.2
ALP (9 h): 1398.6 IU/L
ALT (9 h): 40.2 IU/L
AST (9 h): 74.6 IU/L
BUN (9 h): 13 mg/dL
CRE (9 h): 0.1 mg/dL
Ca (9 h): 10.7 mg/dL
Cl (9 h): 106.2 meq/L
DBIL (9 h): 0.002 mg/dL
GLC (9 h): 188 mg/dL
IP (9 h): 9.1 mg/dL
K (9 h): 4.3 meq/L
LDH (9 h): 157.2 IU/L
Na (9 h): 141.2 meq/L
PL (9 h): 156.2 mg/dL
RALB (9 h): 3.2 g/dL
TBIL (9 h): 0.024 mg/dL
TC (9 h): 84.4 mg/dL
TG (9 h): 81.2 mg/dL
TP (9 h): 5.7 g/dL
gamma-GTP (9 h): 1.2 IU/L
TERMINAL_BW (24 h): 231.1 g
APTT (24 h): 24.4 s
Bas (24 h): 0%
Eos (24 h): 1%
Fbg (24 h): 333.6 mg/dL
Hb (24 h): 13.2 g/dL
Ht (24 h): 40.6%
Lym (24 h): 77.8%
MCH (24 h): 20.5 pg
MCHC (24 h): 32.6%
MCV (24 h): 63 fL
Mono (24 h): 2.2%
Neu (24 h): 18.6%
PT (24 h): 15.5 s
Plat (24 h): 125.6 x10_4/uL
RBC (24 h): 644.6 x10_4/ul
Ret (24 h): 7.9%
WBC (24 h): 130.2 x10_2/uL
KIDNEY_L (24 h): 1 g
KIDNEY_R (24 h): 1.1 g
KIDNEY_TOTAL (24 h): 2.1 g
LIVER (24 h): 12.1 g
A/G (24 h): 1.2
ALP (24 h): 1702.6 IU/L
ALT (24 h): 45.8 IU/L
AST (24 h): 70.8 IU/L
BUN (24 h): 17.8 mg/dL
CRE (24 h): 0.2 mg/dL
Ca (24 h): 11.1 mg/dL
Cl (24 h): 105.8 meq/L
DBIL (24 h): 0 mg/dL
GLC (24 h): 193.4 mg/dL
IP (24 h): 7.8 mg/dL
K (24 h): 4.5 meq/L
LDH (24 h): 184.2 IU/L
Na (24 h): 140.8 meq/L
PL (24 h): 168 mg/dL
RALB (24 h): 3.3 g/dL
TBIL (24 h): 0 mg/dL
TC (24 h): 77.2 mg/dL
TG (24 h): 188.8 mg/dL
TP (24 h): 5.9 g/dL
gamma-GTP (24 h): 1.6 IU/L
